Experimental data reported in PubChem BioAssay AID1963965 (Molecular Pharmacology Branch, DTP, NCI, 2024).

Test system: 996289-038-R-J1-PDC spheroid viability
Assay: Anticancer human tumor 996289-038-R-J1-PDC patient-derived colon adenocarcinoma cell line growth inhibition [PI3K]
Settings: spheroids with HUVEC and MSC; for IC50: curve of first compound; for viability, T/C: stronger effect = lower value; active = viability on the fitted dose curve at most 10% of control; inactive = the rest
Procedure, shortened: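 Tumor cells were combined with HUVEC and MSCs into spheroids, then dosed with PI3K-inhibitor combinations over half-log ranges capped near clinical Cmax or 10 microM.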

[1] = second compound 0.0316 µM, first compound 0.0316 µM
[2] = second compound 0.0316 µM, first compound 0.1 µM
[3] = second compound 0.0316 µM, first compound 0.316 µM
[4] = second compound 0.0316 µM, first compound 1 µM
[5] = second compound 0.0316 µM, first compound 3.16 µM
[6] = second compound 0.0316 µM, first compound 10 µM
[7] = second compound 0.1 µM, first compound 0.0316 µM
[8] = second compound 0.1 µM, first compound 0.1 µM
[9] = second compound 0.1 µM, first compound 0.316 µM
[10] = second compound 0.1 µM, first compound 1 µM
[11] = second compound 0.1 µM, first compound 3.16 µM
[12] = second compound 0.1 µM, first compound 10 µM
[13] = second compound 0.316 µM, first compound 0.0316 µM
[14] = second compound 0.316 µM, first compound 0.1 µM
[15] = second compound 0.316 µM, first compound 0.316 µM
[16] = second compound 0.316 µM, first compound 1 µM
[17] = second compound 0.316 µM, first compound 3.16 µM
[18] = second compound 0.316 µM, first compound 10 µM
[19] = second compound 1 µM, first compound 0.0316 µM
[20] = second compound 1 µM, first compound 0.1 µM
[21] = second compound 1 µM, first compound 0.316 µM
[22] = second compound 1 µM, first compound 1 µM
[23] = second compound 1 µM, first compound 3.16 µM
[24] = second compound 1 µM, first compound 10 µM
[25] = second compound 3.16 µM, first compound 0.0316 µM
[26] = second compound 3.16 µM, first compound 0.1 µM
[27] = second compound 3.16 µM, first compound 0.316 µM
[28] = second compound 3.16 µM, first compound 1 µM
[29] = second compound 3.16 µM, first compound 3.16 µM
[30] = second compound 3.16 µM, first compound 10 µM
[31] = second compound 10 µM, first compound 0.0316 µM
[32] = second compound 10 µM, first compound 0.1 µM
[33] = second compound 10 µM, first compound 0.316 µM
[34] = second compound 10 µM, first compound 1 µM
[35] = second compound 10 µM, first compound 3.16 µM
[36] = second compound 10 µM, first compound 10 µM
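Note: spheroids exposed to compounds for seven days before viability read.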
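Throughout, for viability, T/C: luminescence used as a proxy for viable cell amount; percent viability relative to DMSO vehicle control as 100%.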

C#Cc1c(F)ccc2cc(O)cc(-c3ncc4c(N5CC6CCC(C5)N6)nc(OCC56CCCN5CC(F)C6)nc4c3F)c12 (stereo not given) + Cc1nc(NC(=O)N2CCCC2C(N)=O)sc1-c1ccnc(C(C)(C)C(F)(F)F)c1
156 nM: IC50 (second compound 1 µM)
291 nM: IC50 (second compound 0.316 µM)
active: viability, T/C [36] 6.74%
1670 nM: IC50 (second compound 0.0316 µM)
610 nM: IC50 (second compound 0.1 µM)
inactive: viability, T/C [1] 80.9% | viability, T/C [2] 77.1% | viability, T/C [3] 66.6% | viability, T/C [4] 53.9% | viability, T/C [5] 45.4% | viability, T/C [6] 40.2% | viability, T/C [7] 94.4% | viability, T/C [8] 78.5% | viability, T/C [9] 55.6% | viability, T/C [10] 45.1% | viability, T/C [11] 39.6% | viability, T/C [12] 33.4% | viability, T/C [13] 72.9% | viability, T/C [14] 55% | viability, T/C [15] 50.8% | viability, T/C [16] 40.1% | viability, T/C [17] 37.8% | viability, T/C [18] 27.8% | viability, T/C [19] 65.5% | viability, T/C [20] 54.8% | viability, T/C [21] 42.6% | viability, T/C [22] 33.2% | viability, T/C [23] 27.8% | viability, T/C [24] 23.4% | viability, T/C [25] 64% | viability, T/C [26] 47.2% | viability, T/C [27] 30.5% | viability, T/C [28] 26.8% | viability, T/C [29] 23.3% | viability, T/C [30] 16.9% | viability, T/C [31] 37.6% | viability, T/C [32] 35.6% | viability, T/C [33] 22.2% | viability, T/C [34] 16.7% | viability, T/C [35] 14.5%
< 31.6 nM: IC50 (second compound 10 µM)
77.7 nM: IC50 (second compound 3.16 µM)

C=CC(=O)N1CCN(c2nc(=O)n(-c3c(C)ccnc3C(C)C)c3nc(-c4c(O)cccc4F)c(F)cc23)C(C)C1 (stereo not given) + Cc1nc(NC(=O)N2CCCC2C(N)=O)sc1-c1ccnc(C(C)(C)C(F)(F)F)c1
45.4 nM: IC50 (second compound 10 µM)
inactive: viability, T/C [1] 91.4% | viability, T/C [2] 107% | viability, T/C [3] 111% | viability, T/C [4] 116% | viability, T/C [5] 115% | viability, T/C [6] 114% | viability, T/C [7] 87.5% | viability, T/C [8] 90.4% | viability, T/C [9] 90.5% | viability, T/C [10] 96.7% | viability, T/C [11] 122% | viability, T/C [12] 93.5% | viability, T/C [13] 79.8% | viability, T/C [14] 95.2% | viability, T/C [15] 94.7% | viability, T/C [16] 83.6% | viability, T/C [17] 97.5% | viability, T/C [18] 89.9% | viability, T/C [19] 88.6% | viability, T/C [20] 85.8% | viability, T/C [21] 75.6% | viability, T/C [22] 87.5% | viability, T/C [23] 77.6% | viability, T/C [24] 80.1% | viability, T/C [25] 59.5% | viability, T/C [26] 71.7% | viability, T/C [27] 74.7% | viability, T/C [28] 61.6% | viability, T/C [29] 64.4% | viability, T/C [30] 59.5% | viability, T/C [31] 50.5% | viability, T/C [32] 50.7% | viability, T/C [33] 43.2% | viability, T/C [34] 40.6% | viability, T/C [35] 48.8% | viability, T/C [36] 47.4%
> 10000 nM: IC50 (second compound 0.0316 µM) | IC50 (second compound 0.1 µM) | IC50 (second compound 0.316 µM) | IC50 (second compound 1 µM) | IC50 (second compound 3.16 µM)

CC(Cn1ccc(-c2ccc(C#N)c(Cl)c2)n1)NC(=O)c1cc(C(C)O)[nH]n1 (stereo not given) + Cc1nc(NC(=O)N2CCCC2C(N)=O)sc1-c1ccnc(C(C)(C)C(F)(F)F)c1
> 10000 nM: IC50 (second compound 0.0316 µM) | IC50 (second compound 0.1 µM) | IC50 (second compound 0.316 µM) | IC50 (second compound 1 µM) | IC50 (second compound 3.16 µM)
< 31.6 nM: IC50 (second compound 10 µM)
inactive: viability, T/C [1] 84% | viability, T/C [2] 86.7% | viability, T/C [3] 95.2% | viability, T/C [4] 109% | viability, T/C [5] 98.9% | viability, T/C [6] 91.8% | viability, T/C [7] 96.6% | viability, T/C [8] 89.7% | viability, T/C [9] 97.8% | viability, T/C [10] 94.4% | viability, T/C [11] 92.4% | viability, T/C [12] 92.3% | viability, T/C [13] 95.8% | viability, T/C [14] 85.3% | viability, T/C [15] 85% | viability, T/C [16] 77.3% | viability, T/C [17] 78.3% | viability, T/C [18] 85.3% | viability, T/C [19] 68.8% | viability, T/C [20] 82.4% | viability, T/C [21] 80.9% | viability, T/C [22] 89.9% | viability, T/C [23] 77% | viability, T/C [24] 69.3% | viability, T/C [25] 58.5% | viability, T/C [26] 55.8% | viability, T/C [27] 66.6% | viability, T/C [28] 66.7% | viability, T/C [29] 72.7% | viability, T/C [30] 50.9% | viability, T/C [31] 49% | viability, T/C [32] 43.1% | viability, T/C [33] 48.9% | viability, T/C [34] 42.3% | viability, T/C [35] 43.1% | viability, T/C [36] 46.4%

Cn1ncc(Cl)c1-c1cc(C(=O)NC(CN)Cc2cccc(F)c2)sc1Cl (stereo not given) + Cc1nc(NC(=O)N2CCCC2C(N)=O)sc1-c1ccnc(C(C)(C)C(F)(F)F)c1
inactive: viability, T/C [1] 76.9% | viability, T/C [2] 91.2% | viability, T/C [3] 78.2% | viability, T/C [4] 63.9% | viability, T/C [5] 60% | viability, T/C [6] 47.6% | viability, T/C [7] 89.2% | viability, T/C [8] 80.3% | viability, T/C [9] 78.5% | viability, T/C [10] 56% | viability, T/C [11] 55.9% | viability, T/C [12] 45.1% | viability, T/C [13] 75.2% | viability, T/C [14] 87.5% | viability, T/C [15] 67.1% | viability, T/C [16] 58% | viability, T/C [17] 51.9% | viability, T/C [18] 31.5% | viability, T/C [19] 82.4% | viability, T/C [20] 71.8% | viability, T/C [21] 63.4% | viability, T/C [22] 53.9% | viability, T/C [23] 42.4% | viability, T/C [24] 31.7% | viability, T/C [25] 61% | viability, T/C [26] 63.6% | viability, T/C [27] 59.2% | viability, T/C [28] 43.4% | viability, T/C [29] 34.5% | viability, T/C [30] 24.9% | viability, T/C [31] 34.8% | viability, T/C [32] 36.4% | viability, T/C [33] 41.6% | viability, T/C [34] 35.5% | viability, T/C [35] 27.3% | viability, T/C [36] 16.2%
9680 nM: IC50 (second compound 0.0316 µM)
2740 nM: IC50 (second compound 0.316 µM)
659 nM: IC50 (second compound 3.16 µM)
4610 nM: IC50 (second compound 0.1 µM)
< 31.6 nM: IC50 (second compound 10 µM)
1390 nM: IC50 (second compound 1 µM)

Cn1nccc1Nc1nccc(-c2ccn(C(CO)c3ccc(Cl)c(F)c3)c(=O)c2)n1 (stereo not given) + Cc1nc(NC(=O)N2CCCC2C(N)=O)sc1-c1ccnc(C(C)(C)C(F)(F)F)c1
< 31.6 nM: IC50 (second compound 10 µM)
inactive: viability, T/C [1] 106% | viability, T/C [2] 114% | viability, T/C [3] 108% | viability, T/C [4] 85.8% | viability, T/C [5] 97% | viability, T/C [6] 55.2% | viability, T/C [7] 107% | viability, T/C [8] 96.8% | viability, T/C [9] 101% | viability, T/C [10] 85.6% | viability, T/C [11] 70.2% | viability, T/C [12] 52.1% | viability, T/C [13] 92.5% | viability, T/C [14] 84.5% | viability, T/C [15] 101% | viability, T/C [16] 72.7% | viability, T/C [17] 61.4% | viability, T/C [18] 49.5% | viability, T/C [19] 76.8% | viability, T/C [20] 90% | viability, T/C [21] 72.5% | viability, T/C [22] 62% | viability, T/C [23] 54.1% | viability, T/C [24] 38.8% | viability, T/C [25] 54.8% | viability, T/C [26] 57.4% | viability, T/C [27] 63% | viability, T/C [28] 54.9% | viability, T/C [29] 52.9% | viability, T/C [30] 27.1% | viability, T/C [31] 44.7% | viability, T/C [32] 40.6% | viability, T/C [33] 57.9% | viability, T/C [34] 34.7% | viability, T/C [35] 29.4% | viability, T/C [36] 15.7%
> 10000 nM: IC50 (second compound 0.0316 µM) | IC50 (second compound 0.1 µM) | IC50 (second compound 0.316 µM)
3530 nM: IC50 (second compound 1 µM)
3560 nM: IC50 (second compound 3.16 µM)
